Reference: US6855549B1, “Methods and compositions for increasing the infectivity of gene transfer vectors” (The University of Iowa Research Foundation, priority 1998, dated 2005)
Like-named read-outs stand apart in the source and are kept apart here.

Tests used:
Format in all cases: cell-based
[1] = test system: differentiated human airway epithelia
[2] = test system: differentiated human airway epithelia; assay: Transepithelial resistance of KGF-treated airway epithelia with Ca2+ chelators; settings: 6 mM chelator, isotonic (220 mmol/kg)
Method: Differentiated epithelial cells were treated with 100 ng/ml KGF for 24 hr. Different concentrations of each calcium chelator in HEPES/HCl (pH 7.4) or in isotonic HEPES/saline (pH 7.4) buffer were mixed with vector buffer and applied to the apical surface for times as specified (Wang et al., 1998). Transepithelial resistance was measured with an Ohmmeter (EVOM; World Precision Instruments, Inc. Sarasota, Fla.) by adding cell culture media to the apical surface and the values were compared to untreated controls.
To understand whether the tonicity of the vector solution affects epithelial permeability and gene transfer efficiency, hypotonic (40 mmol/kg) or isotonic (220 mmol/kg) solutions of 6 mM EGTA, EDTA or BAPTA were added to the MuLV vector buffer and applied to the apical surface of differentiated airway epithelial cells pre-treated with KGF. At specific time intervals, transepithelial resistance (R1) was measured using an Ohmmeter.

[3] = test system: human bronchial epithelial cells
Method: Primary human airway epithelial cells were collected by enzymatic digestion of bronchial samples from lung transplants as previously described (Kondo et al., 1991; Zabner et al., 1996). Isolated airway primary cells were seeded at a density of 5×10^5 cells/cm^2 onto collagen-coated Millicell-HA culture inserts (Millipore, Bedford, Mass.). Primary cultures were grown at the air-liquid interface for more than 2 wk, at which time differentiation into a mucociliary epithelium occurs. The culture medium, used to feed only the basolateral side of the cells, contained 49% Dulbecco's modified Eagle's medium (DMEM), 49% Ham's F12, and 2% Ultraser G (BioSepra, Cedex, France).
Recombinant AAV virus was produced by a CaPO4 co-transfection protocol and was purified through three rounds of isopycnic cesium chloride ultracentrifuigation, as previously described (Duan et al., 1997). The proviral plasmid, pCisAV.GFP3ori, was used to generate rAAV (AV.GFP3ori), which encoded the enhanced green fluorescent protein (EGFP) reporter gene under the transcriptional control of the cytomegalovirus (CVM) enhancer/promoter and simian virus 40 (SV40) polyadenylation signal (Duan et al., 1998). Recombinant viral stocks were heated at 58° C. for 60 min to inactivate contaminating helper adenovirus. Typical yields were 1×10^9 particles/μl, determined on the basis of DNA slot-blot hybridization assays against plasmid standards. The level of adenoviral contamination, as based on a second reporter assay for the recombinant adenovirus used for propagation (Ad.CMVAlkphos) (Duane et al., 1997), was less than 1 functional particle per 1×10^10 DNA particles of rAAV. Viral preparations were evaluated for the contamination of wild type AAV (wtAAV) by immunocytochemical staining of AV.GFP3ori/Ad.CMVLacZ (Duan et al., 1998)-coinfected 293 cells with anti-Rep antibodies (American Research Products, Belmont, Mass.). […] Transfection with Rep/Cap-encoding plasmids served as controls for antibody staining of Rep protein. Virus was dialyzed in phosphate-buffered saline (PBS) prior to application on primary airway cultures. […]

[4] = test system: primary cultures of human airway epithelia; assay: EGTA dose range for gene transfer on primary cultures of human airway epithelia; settings: MuLV or FIV based retroviruses, MOI 10, range tested 0-96 mM, 4 hrs apical
Method: The optimal dose range for EGTA was determined on primary cultures of human airway epithelia Gene transfer efficiency with apical application of MuLV or FIV based retrovirus (MOI 10) or adenovirus (MOI 50) was determined over a range of EGTA concentrations from 0-96 mM. The vectors were diluted 1:1 (vol/vol) with a buffer consisting of water, 10 mM HEPES and the appropriate amount of EGTA. The vector formulation was left on the apical surface of the cells for 4 hrs, then removed. Gene transfer efficiency was evaluated 3 days later by X-gal staining for beta galactosidase expression.

[5] = vector to apical surface with EGTA in vector buffer, 200 cells counted

## O=C(O)CN(CCOCCOCCN(CC(=O)O)CC(=O)O)CC(=O)O [EGTA]
[1]; application of H2O or EGTA to epithelia, control studies
  effect on proliferation: had no effect on proliferation
[1]; pretreated with combination of water and EGTA 20 min, then vector, mean±SE, n=9
  β-gal positive cells: 20.3±2.5%
[1]; sequential water then EGTA in water 10 min each, then vector
  β-gal positive cells: 8±1.3%
[1]; [5]
  share of β-gal positive cells that are basal cells: 36%
  share of β-gal positive cells that are ciliated cells: 28%
  share of β-gal positive cells that are intermediate cells: 36%
[1]; water and EGTA 20 min, then vector containing EGTA, 3 days after delivery, mean±SE, n=9
  β-gal positive cells: 34.3±5.4%
[2]
  time required to decrease R1 to ~20% of the controls: Sixty
[3]
  apical transduction after EGTA, lower than maximal basolateral level: 20 fold
  rAAV transduction, EGTA and virus on basolateral side: no significant differences were seen in the extent of rAAV
[3]; 40 days after hypotonic/EGTA treatment
  integrity of the monolayers by light microscopy: No significant differences were detected in the integrity of the monolayers
[4]
  EGTA concentration giving greatest gene transfer (percentage of blue cells): 6 to 12 mM
